Results reported in PubChem BioAssay (NCI).
Where “and” joins values, the source holds several entries; their conditions need not be identical. Identical values can stand only once.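 Test compounds were applied to cells in 96-well plates for 48 hours at 5 doses. GI50 marks 50% less growth. The concentration for full growth arrest is given as TGI.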

How the values were obtained:
Experiment in all cases: growth of human tumour cells (NCI), 48 h
SF-295 CNS = test system: SF-295 CNS
HOP-92 NSCLC = test system: HOP-92 NSCLC
U251 CNS = test system: U251 CNS
NCI-H23 lung = test system: NCI-H23 lung
HCT-116 colon = test system: HCT-116 colon
M14 melanoma = test system: M14 melanoma
HOP-62 NSCLC = test system: HOP-62 NSCLC
OVCAR-8 ovarian = test system: OVCAR-8 ovarian
OVCAR-4 ovarian = test system: OVCAR-4 ovarian
UACC-62 melanoma = test system: UACC-62 melanoma
SK-OV-3 ovarian = test system: SK-OV-3 ovarian

| Compound | TGI (SF-295 CNS) | TGI (HOP-92 NSCLC) | TGI (U251 CNS) [µM] | TGI (NCI-H23 lung) | TGI (HCT-116 colon) | TGI (M14 melanoma) | TGI (HOP-62 NSCLC) | TGI (OVCAR-8 ovarian) | TGI (OVCAR-4 ovarian) | TGI (UACC-62 melanoma) | TGI (SK-OV-3 ovarian) | GI50 (HOP-92 NSCLC) | GI50 (U251 CNS) [µM] | GI50 (NCI-H23 lung) | GI50 (M14 melanoma) | GI50 (HOP-62 NSCLC) | GI50 (OVCAR-4 ovarian) | GI50 (UACC-62 melanoma) | GI50 (SK-OV-3 ovarian) |
| --- | --- | --- | --- | --- | --- | --- | --- | --- | --- | --- | --- | --- | --- | --- | --- | --- | --- | --- | --- |
| CC1(O)CC(C(F)(F)F)(C(F)(F)F)OC1=O (configuration not stated) | > 10 µM | > 10 µM | > 10 | > 10 µM | > 10 µM | > 10 µM | > 10 µM | > 10 µM | > 10 µM | > 10 µM | > 10 µM |  |  |  |  |  |  |  |  |
| O=C1/C(=C/c2ccccc2)N=C(c2ccccc2)N1n1c(-c2ccccc2)nc2ccccc2c1=O | > 100 µM | > 100 µM | > 100 | > 100 µM | > 100 µM | > 100 µM | > 100 µM | > 100 µM | > 100 µM | > 100 µM | > 100 µM |  |  |  |  |  |  |  |  |
| COc1cc(-c2cc(=O)c3cc4c(cc3[nH]2)OCO4)cc(OC)c1O | > 10 µM | > 10 µM | > 10 | > 10 µM | > 10 µM | > 10 µM | > 10 µM | > 10 µM | > 10 µM | > 10 µM | > 10 µM |  |  |  |  |  |  |  |  |
| C=C1CC(COc2cc(=O)oc3ccccc23)(c2ccccc2)OC1=O (configuration not stated) | 22.7 µM | 2.34 µM | 25.3 | 4.92 µM | 2.87 µM | 3.3 µM | 22.9 µM | 4.87 µM | 4.64 µM | 2.92 µM | 16.1 µM |  |  |  |  |  |  |  |  |
| CC1=C2C(=O)NN=C2CCN1c1ccc(Br)cc1 | > 100 µM | > 100 µM | > 100 | > 100 µM | > 100 µM | > 100 µM | > 100 µM | > 100 µM | > 100 µM | > 100 µM | > 100 µM |  |  |  |  |  |  |  |  |
| COc1ccccc1Nc1nc(N)nc(N)c1N=O | > 100 µM | > 100 µM | > 100 | > 100 µM | > 100 µM | > 100 µM | > 100 µM | > 100 µM | > 100 µM | > 100 µM | > 100 µM |  |  |  |  |  |  |  |  |
| O=C(CN1c2ccccc2Sc2ccccc21)N1CCNCC1 | > 100 µM | > 100 µM | > 100 | > 100 µM | > 100 µM | > 100 µM | > 100 µM | > 100 µM | > 100 µM | > 100 µM | > 100 µM |  |  |  |  |  |  |  |  |
| NCC1CCN(c2nc3ccccc3c3c2CCCC3)CC1 | 26.7 µM | 24.1 µM | 16.2 | 30.1 µM | 9.91 µM | 3.71 µM | 32.1 µM | 42.9 µM | 23.2 µM | 4.96 µM | 29.6 µM |  |  |  |  |  |  |  |  |
| CC(=O)OCC1OC(OC(C)(C)CC/C=C(\C)[C@@H]2C/C=C(\C)CC/C=C(\C)CC2)C(O)C(O)C1OC(C)=O (some centres not stated) | > 100 µM and 42.4 µM | > 100 µM and 35 µM | > 100 | > 100 µM and 25.3 µM | > 60.1 µM and 60.9 µM | > 100 µM and 47.8 µM | > 100 µM and 30.4 µM | 82.3 µM and 43.5 µM | > 100 µM and 32.1 µM | > 100 µM and 30.6 µM | > 100 µM and 34 µM | > 81.2 µM and 17.5 µM | 39.3 | 46.2 µM and 12.7 µM | 60 µM and 19.7 µM | > 82.7 µM and 16.8 µM | > 58.7 µM and 16.2 µM | > 92.8 µM and 15.3 µM | > 100 µM and 18.5 µM |
| Cc1nc2cccc([N+](=O)[O-])c2c(NCCCN(C)C)c1C | > 100 µM | > 100 µM | > 100 | > 31.6 µM | 59 µM | > 100 µM | > 69.2 µM | > 54.7 µM | > 100 µM | > 100 µM | > 100 µM |  |  |  |  |  |  |  |  |
| NC(N)=NS(=O)(=O)c1ccc(NCc2c3ccccc3[n+]([O-])c3ccccc23)cc1 | > 100 µM | 28.5 µM | > 100 | > 100 µM | 31.9 µM | > 100 µM | > 100 µM | > 100 µM | 85.3 µM | > 100 µM | > 100 µM |  |  |  |  |  |  |  |  |
| CC(C)(C)C1=C(Br)C(Br)(C(C)(C)C)OP1(=O)c1ccccc1 (configuration not stated) | > 100 µM | > 100 µM | > 100 | > 100 µM | > 100 µM | > 100 µM | > 100 µM | > 100 µM | > 100 µM | > 100 µM | > 100 µM |  |  |  |  |  |  |  |  |
| CN(C)CCCOC(=O)C(c1ccccc1)C1(O)CCSCC1 (configuration not stated) | > 100 µM | > 100 µM | > 100 | > 100 µM | > 100 µM | > 100 µM | > 100 µM | > 100 µM | > 100 µM | > 100 µM | > 100 µM |  |  |  |  |  |  |  |  |
| CN(CCC#N)c1ccc(/C=C2\SC(=S)NC2=O)cc1 | > 100 µM | > 100 µM | > 100 | > 100 µM | > 100 µM | > 100 µM | > 100 µM | > 100 µM | > 100 µM | 47.3 µM | > 100 µM |  |  |  |  |  |  |  |  |
| O=C(NNC(=S)Nc1ccc(Cl)cc1)c1cc(-c2ccccc2)nc2ccccc12 | 9.22 µM | 13.6 µM | 16.1 | 17.2 µM | 13.5 µM | 18.7 µM | 19.6 µM | 29.1 µM | 24.3 µM | 12.6 µM | 19.8 µM |  |  |  |  |  |  |  |  |
| O=C1CCC[C@@H]2NC[C@@H](c3ccc4c(c3)OCO4)[C@H]12 | > 25 µM | > 25 µM | > 25 | > 25 µM | > 25 µM | > 25 µM | > 25 µM | > 25 µM | > 25 µM | > 25 µM | > 25 µM |  |  |  |  |  |  |  |  |
| Cc1nc(-c2ccc([N+](=O)[O-])cc2)cn2c1nc1ccccc12 | > 100 µM | > 100 µM | > 100 | > 100 µM | > 100 µM | > 100 µM | > 100 µM | > 100 µM | > 100 µM | 53.8 µM | > 100 µM |  |  |  |  |  |  |  |  |
| COc1ccc(-n2c(=O)c3[nH]cnc3n(-c3ccc(OC)cc3)c2=S)cc1 | > 100 µM | > 100 µM | > 100 | > 100 µM | > 100 µM | > 100 µM | > 100 µM | > 100 µM | > 100 µM | > 100 µM | > 100 µM |  |  |  |  |  |  |  |  |
| Cc1nnc2n1N=C(c1cc(F)c(Cl)cc1Cl)/C(=C/c1ccc(Cl)cc1)S2 | 35.5 µM | 60.1 µM | 38.5 | 48.8 µM | 21 µM | 43 µM | 31.2 µM | > 100 µM | 33.3 µM | 52.8 µM | > 100 µM |  |  |  |  |  |  |  |  |
